Entries after “also recorded” stand apart in the source; their conditions may differ.
Key:
[1] = test system: p65 NF-κB; assay: NF-κB p65 nuclear translocation (immunofluorescence and subcellular fractionation) in L6-GLUT4myc myotubes; format: cell-based, rat
Method: NF-κB is bound to IκB-α in the cytoplasm. Upon activation of the IKK/NF-κB/IκB pathway, IκB is degraded, freeing NF-κB to translocate into the nucleus and activate the transcription of pro-inflammatory mediators. To visualize the localization of NF-κB, immunofluorescence and confocal microscopy studies were performed in L6-GLUT4myc myo-tubes pre-treated with CDDO-EA for 1 h and then exposed to LPS for 1 h. The untreated muscle cells show a basal-level expression of p65 NF-κB in the nucleus (FIG. 14A).
For subcellular fractionation, differentiated L6-GLUT4myc myotubes were pre-treated with CDDO-EA 500 nM for 1 h follow by LPS 100 ng/ml (E. coli O111: B4, Sigma Aldrich) treatment for 1 h, and the nuclear and cytosolic fractions were isolated using the Nuclear Extraction Kit (Panomics) according to the manufacturer's instructions. The extracted fractions were then analyzed by Western blotting as described.
Immunofluorescence microscopy: L6-GLUT4myc myoblasts (4×10^4 cells/ml, 0.2 ml/well) were plated onto Nunc Lab-TekII 8-chamber slides (Thermo Fisher Scientific) and differentiated for 7 days. Myotubes were pre-treated with CDDO-EA 500 nM for 1 h followed by LPS 100 ng/ml (E. coli O111: B4, Sigma Aldrich) treatment for 1 h. […]

[2] = test system: MCP-1; assay: LPS-induced MCP-1 ELISA in RAW264.7 macrophages (CDDO-EA batches); format: cell-based, mouse; conditions: RAW264.7, 500 nM 1 hour then 100 ng/ml LPS 6 hr
Method: Macrophages were pre-treated with 500 nM CDDO-EA #1 or 500 nM CDDO-EA #2, for 1 hour. The microphages were then stimulated with 100 ng/ml of lipopolysaccharide (LPS) for 6 hr. Supernatants were collected from each culture. An enzyme linked immunoassay (ELISA) was performed to detect levels of the pro-inflammatory protein, monocyte chemotactic protein-1 (MCP-1). The macrophages were also treated with LPS alone or with CDDO-EA alone. A control (no treatment) group was also included in the study.
The second batch of CDDO-EA was tested for its biological property of anti-inflammatory activity. As with the first batch of CDDO-EA, this was tested by using the mouse macrophage cell line RAW264.7. RAW264.7 macrophages were pre-treated with 500 nM CDDO-EA for 1 hour then stimulated with 100 ng/ml of lipopolysaccharide (LPS) for 6 hr. Supernatants were collected, and an enzyme linked immunoassay (ELISA) was performed to detect the pro-inflammatory protein, monocyte chemotactic protein-1 (MCP-1). The macrophages were also treated with LPS alone or with CDDO-EA alone. A control (no treatment) group was also included in the study. […] This suppression of MCP-1 production by the second batch CDDO-EA is similar to that observed for the first batch of CDDO-EA. (See FIG. 21).

[3] = test system: TNF-α; assay: LPS-induced TNF-α ELISA in RAW 264.7 macrophages; format: cell-based, mouse; conditions: RAW264.7, 500 nM CDDO-EA 1 hour then 100 ng/ml LPS 6 hours
Method: Cytokine detection: RAW 264.7 cells were grown on 24-well dishes at 1×10^6 cells/ml, 0.5 ml/well. Cells were pre-treated with CDDO-EA 500 nM for 1 h. After 1 h, cells were treated with 100 ng/ml of LPS16,18 (E. coli O111: B4, Sigma Aldrich) for 6 h, and supernatants were collected and stored at −80° C. until analysis. TNF-α from the culture media of cells was measured and quantified using a Mouse TNF (Mono/Mono) ELISA Set (BD Bioscience) according to the manufacturer's instructions.

[4] = test system: L6-GLUT4myc myotubes; assay: Sulforhodamine B (SRB) cell viability assay; format: cell-based, rat; conditions: 500 nM CDDO-EA, 24 hours
Method: Sulforhodamine B (SRB) cell viability assay: L6-GLUT4myc myoblasts (4000 cells/well) were seeded on a 96-well plate and differentiated into myotubes with differentiation medium for 7 days. Myotubes were then treated with doubling concentrations of CDDO-EA for 6 or 24 h. After treatment, myotubes were fixed in 10% cold trichloroacetic acid (TCA) (Sigma Aldrich), for 1 h in 4° C., followed by three washings with water. The plate was then dried, and the cells were dyed with 100 μL/well of 0.057% SRB (Sigma Aldrich) in 1% acetic acid for 30 min in room temperature. The plate was washed with 1% acetic acid five times, dried, and 200 μL/well of 10 mM unbuffered tris-base solution were added to dissolve the bound SRB. The plate was shaken for 1 h and then read on SpectraMax at 560 nm. Results were normalized to values for non-treated cells.

[5] = test system: NFκB; assay: Western blot of palmitate (PA)-induced NFκB phosphorylation in L6-GLUT4myc myotubes; format: cell-based, rat; conditions: CDDO-EA 500 nM 1 h then PA 400 μM 6 h
Method: L6-GLUT4myc myotubes were pretreated with CDDO-EA (500 nM, 1 h) and then treated with PA (400 μM, 6 h). NFκB phosphorylation and protein were measured by Western blotting. Data are represented as ±SEM. * P<0.05 vs. control; ^#P<0.05 vs. […]. (One-Way ANOVA).

[6] = OGTT and fasting glucose at week 6 with pair-fed group; format: in vivo, C57BL/6J mice
Method: FIG. 25—OGTT Area Under the Curve. Oral GTT performed at week 6 of experimental feeding, and mice were dosed on lean mass (2 g/kg lean mass). C57BL/6J mice were fed a HFD with or without incorporation of CDDO-EA (diet containing 0.04% CDDO-EA) or LFD or HFD pair-fed for 6 weeks (n=5). Data are represented as mean±SEM (One-way ANOVA).
Fasting glucose levels were measured at day 42 of experimental feeding. C57BL/6J mice were fed a HFD with or without incorporation of CDDO-EA (diet containing 0.04% CDDO-EA) or a LFD or were HFD pair-fed for 6 weeks (n=5). Data are represented as mean±SEM (One-way ANOVA).
To determine the answer to this question, a pair-fed/weight-matched group was included in the study. OGTT was performed at end of the 6-week study.

CCNC(=O)[C@]12CCC(C)(C)C[C@H]1C1C(=O)C=C3[C@@]4(C)C=C(C#N)C(=O)C(C)(C)[C@@H]4CC[C@@]3(C)[C@]1(C)CC2 (stereo partly drawn) [CDDO-EA, (4aS,6aR,6bS,8aR,12aS,14bS)-11-cyano-N-ethyl-2,2,6a,6b,9,9,12a-heptamethyl-10,14-dioxo-1,3,4,5,6,6a,6b, 7,8,8a,9,10,12a, 14,14a, 14b-hexadecahydropicene-4a (2H)-carboxamide]
LPS-induced p65 NF-κB nuclear translocation ([1]; 500 nM CDDO-EA 1 hr then 100 ng/ml LPS 1 hr): reduces LPS-induced p65 NF-κB nuclear staining; also recorded: decreased both cytoplasmic and nuclear localization of p65 NF-κB; also recorded: prevented NF-κB translocation to the nucleus | NF-κB activation ([1]; CDDO-EA alone, no LPS): had no effect on NF-κB activation | LPS-induced production of MCP-1 [2]: significantly suppresses the LPS-induced production | LPS-induced TNF-α production [3]: substantially blocked; also recorded: inhibits LPS-induced cytokines secretion in macrophages | cell viability [4]: 62% | PA-induced NFκB phosphorylation [5]: inhibits PA-induced NF-κB activation; also recorded: inhibits PA-induced NFκB phosphorylation | fasting glucose ([6]; day 42, HFD+CDDO-EA compared to HFD ad lib): significant lowered fasting glucose levels; also recorded: lowers fasting glucose levels | fasting glucose ([6]; day 42, HFD+CDDO-EA compared to HFD pair-fed): close to significant effect on fasting glucose | glucose tolerance (OGTT Area Under the Curve) ([6]; week 6, HFD+CDDO-EA compared to HFD ad lib): significant improvement in glucose tolerance | glucose tolerance (OGTT Area Under the Curve) ([6]; week 6, HFD+CDDO-EA compared to HFD pair-fed): slight improvement in glucose tolerance
